In patent US8962891B2, “Synthetic analogs of sphingolipids” (Hadasit Medical Research Services & Development Limited, priority 2007, dated 2015):

Assays:
[1] = tested on: Pancreas tumor cells; experiment: Pancreas tumor cell viability after combined treatment (MTT test); assay type: cell-based; conditions: 24 h; for cell viability (MTT), combination of AD2730 and ADYZ197: 2 μM AD2730 combined with 10 μM ADYZ197
Protocol: FIG. 3A-3B: The viability of pancreatic cells using different drug combination for 24, h (MTT test)
The inventors next examined the effect of combining the compound of the invention with known chemotherapeutic drugs. Pancreas tumor cells were incubated with 1 μM taxol and 2 μM AD2750, (separately and in combination). The results are shown in the left part of the graph, in FIG. 3A, as percent of viable cells (checked by MTT). A combination of 20 μM fluorouracil and 8 μM AD2750 is shown in the right part of the graph, in FIG. 3A.
The inventors next examined the potential anti-cancerous effect of other compounds of Formula II. Therefore, pancreas tumor cells were incubated with 2 μM AD2730 and 10 μM ADYZ197, separately and in combination. The results are presented in the left part of the graph, in FIG. 3B, as percent of viable cells (checked by MTT).

[2] = tested on: CRL-1687; experiment: IC50 in cancer cell lines (Table 1), CRL-1687; assay type: cell-based; conditions: CRL-1687 (Pancreas), incubation 24 hours, FCS yes, 0.2*10^6/ml plated cells
[3] = tested on: pancreas tumor cells (CRL-1687); experiment: Pancreas tumor (CRL-1687) growth in CD1-nude mice; assay type: in vivo; conditions: 5×10^6 CRL-1687 cells id, 30 mg/kg ip in 10% CE beginning day 1, up to 35 days
Protocol: In order to examine the applicability of the compounds of the invention as an anti-cancerous drug, the inventors next examined the effect of i.p. administration of AD2750, on pancreas tumor. Therefore, CD1-nude mice were injected id with 5×10^6 pancreas tumor cells (CRL-1687). The mice were treated ip, with AD2750, beginning day 1, 30, mg/kg in 0.2 ml 10% CE, for up to 35 days. Tumor size was measured and calculated every 5-7 days beginning day 8.

[4] = tested on: BxPC-3 tumor; experiment: BxPC-3 human pancreatic tumor xenograft efficacy study; assay type: in vivo; conditions: BxPC-3 s.c. in athymic NCr-nu/nu mice
Source text: BxPC-3 Human Pancreatic Tumor Model
Thirty-to-forty mg tumor fragments of BxPC-3 tumor from a continuous in vivo passage were implanted subcutaneously (sc) into athymic NCr-nu/nu mice using 12-gauge trocar needles.
Animals were purchased from NCI-approved animal facilities (4-5 weeks old) and acclimated in the laboratories one week prior to experimentation. The animals were housed in microisolator cages in a 12-hour light/dark cycle. Animals received filter-sterilized water and sterile rodent food ad libitum. Cages were changed a minimum of twice weekly. The animals were weighed twice weekly and observed daily (for about sixty days of experiment) for clinical signs.
Tumor Measurements and Body Weights: Tumors measurements and animal body weights are recorded twice weekly. Tumor volume was determined by caliper measurements (mm) and using the formula for an ellipsoid sphere: Length×Width^2/2=Volume (mm^3)
This commonly used formula is also used to calculate tumor weight, assuming unit density (1 mm^3=1 mg).
Parameters Evaluated: For sc tumors trials, a T-C value based on 1, 2, 3 or 4 tumor volume doubling time (days), as appropriate for the particular trial, was made. This evaluation is based on tumor size of the control animals at the end of the treatment period. A T/C (%) or T/C (%) value was determined. […]

[5] = tested on: CRL-5891; experiment: IC50 in cancer cell lines (Table 1), CRL-5891; assay type: cell-based; conditions: CRL-5891 (NSCLC, Lung carcinoma), incubation 24 hours, FCS no, 0.1 × 10^6/ml plated cells
[6] = tested on: CCL-224; experiment: IC50 in cancer cell lines (Table 1), CCL-224; assay type: cell-based; conditions: CCL-224 (Colon), incubation 24 hours, FCS no, 0.2*10^6/ml plated cells
[7] = tested on: PC-3; experiment: IC50 in cancer cell lines (Table 1), PC-3; assay type: cell-based; conditions: Homo sapiens, PC-3 (Prostate)
[8] = tested on: Du-145; experiment: IC50 in cancer cell lines (Table 1), Du-145; assay type: cell-based; conditions: Homo sapiens, Du-145 (Prostate)
[9] = tested on: CRL-1976; experiment: IC50 in cancer cell lines (Table 1), CRL-1976; assay type: cell-based; conditions: CRL-1976 (Sarcoma), incubation 24 hours, FCS yes, 0.2*10^6/ml plated cells
[10] = tested on: MDA-MB-435 cells; experiment: MDA-MB-435 survival experiment in nude mice; assay type: in vivo; conditions: CD1-nude mice injected iv with 3×10^6 MDA-MB-435 cells; 20 mg/kg in the drinking water beginning day 1; to day 100
Protocol: CD1-nude mice were injected iv with 3×10^6 MDA-MB-435 cells, which are usually considered as metastatic human breast cancer, but recently are also considered as model cells for melanoma. The mice were treated with AD2750, 20 mg/kg in the drinking water beginning day 1. On day 100, the remaining mice were sacrificed, and the pathology was determined.

[11] = tested on: LNCaP; experiment: IC50 in cancer cell lines (Table 1), LNCaP; assay type: cell-based; conditions: Homo sapiens, LNCaP (Prostate)
[12] = tested on: CRL-5803; experiment: IC50 in cancer cell lines (Table 1), CRL-5803; assay type: cell-based; conditions: CRL-5803 (NSCLC, Lung carcinoma), incubation 24 hours, FCS yes, 0.1 × 10^6/ml plated cells
[13] = tested on: MEL624; experiment: IC50 in cancer cell lines (Table 1), MEL624; assay type: cell-based; conditions: MEL624 (Melanoma), incubation 24 hours, FCS yes, 0.1 × 10^6/ml plated cells
[14] = tested on: HL-60; experiment: IC50 in cancer cell lines (Table 1), HL-60; assay type: cell-based; conditions: Homo sapiens; HL-60 (Promyelocytic leukemia), incubation 24 hours, FCS no, 0.1 × 10^6/ml plated cells
[15] = incubation 24 hours, FCS yes, 0.1 × 10^6/ml plated cells
[16] = incubation 72 hours, FCS yes, 0.05 × 10^6/ml plated cells
[17] = incubation 24 hours, FCS no, 0.1 × 10^6/ml plated cells
[18] = incubation 48 hours, FCS yes, 0.1 × 10^6/ml plated cells

For CCCCNC(CO)C(O)c1ccccc1 (centres unmarked) [AD2730, 2-(butylamino)-1-phenylpropane-1,3-diol], the “cell viability (MTT), combination of AD2730 and ADYZ197” value [1] was “significant synergistic effect on reduction of cell viability”.
With CCCCCCCCCCCCCCNC(CO)CO [AD2750, 2-(tetradecylamino)propane-1,3-diol] the “tumor cell viability (MTT), combination with Taxol” value ([1]; 2 μM AD2750 combined with 1 μM taxol) was “markedly reduced tumor cell viability”, the “tumor cell viability (MTT), combination with fluorouracil” value ([1]; 8 μM AD2750 combined with 20 μM fluorouracil) was “markedly reduced tumor cell viability” and the IC50 [2] was 15 µM. The “reduction in tumor volume” value [3] was “about 5 folds”, the “tumor volume, monotherapy” value ([4]; 20 or 30 mg/kg i.p. daily for 28 days, vs vehicle) was “clearly reduced tumor volume in a dose dependent manner” and the “tumor volume, combination with Camptosar” value ([4]; AD2750 20 or 30 mg/kg with Camptosar 60 or 30 mg/kg i.p. for 28 days) was “significant reduction in tumor volume”. The IC50 [5] was 8 µM, the IC50 [6] was 13 µM and the IC50 [7, 15] was 12.2 µM. The IC50 [7, 16] was 6.8 µM, the IC50 [8, 17] was 3.3 µM and the IC50 [8, 16] was 7.5 µM. For the same molecule, the IC50 [9] was 5 µM, the “survival of treated animals” value [10] was “increased survival” and the tumor incidence [10] was “significantly reduced tumor incidence”. It also gave an IC50 ([11]; LNCaP, 24 h, incubation 24 hours, FCS no, 0.1 × 10^6/ml plated cells) of 4.9 µM, an IC50 ([11]; LNCaP, 24 h, incubation 24 hours, FCS yes, 0.1 × 10^6/ml plated cells) of 15.2 µM and an IC50 ([11]; LNCaP, 48 h, incubation 48 hours, FCS yes, 0.1 × 10^6/ml plated cells) of 8.7 µM. The IC50 ([11]; LNCaP, 72 h, incubation 72 hours, FCS yes, 0.05 × 10^6/ml plated cells) was 3.9 µM, the IC50 [12] was 11 µM and the IC50 [13] was 9 µM.
CCCCCCCCCCNC(CO)(CO)CO [ADYZ195, 2-(decylamino)-2-(hydroxymethyl)propane-1,3-diol] showed an IC50 [7, 17] of over 50 µM and an IC50 [8, 17] of over 50 µM.
For CCCCCCCCCCCCCCCCCCNC(CO)(CO)CO [ADYZ197, 2-(octadecylamino)-2-(hydroxymethyl)propane-1,3-diol], the “cell viability (MTT), combination of AD2730 and ADYZ197” value [1] was “significant synergistic effect on reduction of cell viability”, the “tumor cell viability (MTT), combination with fluorouracil” value ([1]; 10 μM ADYZ197 combined with 20 μM fluorouracil) was “significant reduction of tumor cell viability” and the IC50 [2] was 22 µM. The IC50 [5] was 10 µM, the IC50 [7, 18] was 8.2 µM and the IC50 [7, 16] was 4.4 µM. The IC50 [8, 15] was 7.5 µM, the IC50 [9] was 20 µM and the IC50 [14] was 15 µM. For the same molecule, the IC50 [11, 17] was 42.9 µM, the IC50 [11, 18] was 23.9 µM and the IC50 ([11]; incubation 72 hours, FCS yes, 0.5 × 10^6/ml plated cells) was 3 µM. It also gave an IC50 [12] of 20 µM and an IC50 [13] of 3 µM.
